Row | SMILES | melting point
1 | Fc1cccc(F)c1C1=NC(c2ccc(OCc3ccc4ccccc4c3)cc2)CO1 (configuration not stated) | 148 to 150 °C
2 | O=C(COc1cc(-c2ccccn2)nc2ccccc12)N1CCOCC1 | 185 °C
3 | O=C1c2ccccc2C(=O)N1OCCCN1CCN(c2nsc3ccccc23)CC1 | 143 to 144 °C
4 | CC(C)(C)c1cc(C(O)C#Cc2ccc(C(=O)O)cc2)cc(C(C)(C)C)c1OCOCC[Si](C)(C)C (configuration not stated) | 155 to 156 °C
5 | Nc1ccc(N2CCN(Cc3ccccc3)CC2)nc1CS(=O)(=O)c1ccccc1 | 175 to 176 °C
6 | Cn1c(=O)c2ncn3c2n(c1=O)CC=C3c1cccc(C(F)(F)F)c1 | 287 to 290 °C
7 | COC(=O)CC1CCN(CCC=C2c3ccccc3OCOc3ccccc32)C1 (configuration not stated) | 70 to 90 °C
8 | OC1Cc2cc(I)ccc2Sc2ccccc21 (configuration not stated) | 131 to 133 °C
9 | CC(=O)OC1CC(=O)N1 (configuration not stated) | 152 to 154 °C
10 | CN1CC(CN2C(=O)C3(COc4cc5c(cc43)OCO5)c3ccccc32)OC1=O (configuration not stated) | 98 to 102 °C
11 | Cc1nnc2n1-c1ccccc1C(c1ccc(Cl)cc1)=NN2Cc1ccc(N)cc1 | 234 to 237 °C
12 | Cc1cccc(C)c1NC(=O)/C=C1\SC(C)C(=O)N1C (configuration not stated) | 220 to 222 °C
13 | O=S(=O)(c1ccccc1)n1c(Cc2cc3ccccc3n2S(=O)(=O)c2ccccc2)cc2ccccc21 | 144 to 145 °C
14 | O=C(O)C(=O)N1CCC(Oc2ccc(F)cc2)CC1 | 147 to 149 °C
15 | CNc1nc(C)c(-c2ccnc(Nc3ccc(CCO)cc3)n2)s1 | 216 to 218 °C
16 | CN(C)C(=O)C(C)(c1ccccc1)n1ccc(-c2ccccc2)n1 (configuration not stated) | 129 to 132 °C
17 | CCCCn1c(=O)[nH]c(=O)c2c3n(nc21)CCN3 | 239 to 240 °C
18 | CCn1c(-c2c(Cl)cccc2Cl)nc(-c2ccnc(Cl)c2)c1-c1ccc(Cl)cc1 | 187 to 189 °C
19 | Cc1c(C(=O)Nc2ccc(N3CCC(N4CCOCC4)CC3)c(C#N)c2)cnn1-c1ccc(F)c(Cl)c1 | 266 °C
20 | c1ccc(COc2ccc(CN(c3ccccc3)c3ccccc3)cc2)cc1 | 104 to 109 °C
21 | Cc1cc2c(c3ccc(=O)[nH]c13)OC(CCCl)C2 (configuration not stated) | 209 to 211 °C
22 | CN(CCOc1ccc(Cn2cc(CCC(=O)O)c(-c3ccccc3)n2)cc1)c1ccccn1 | 110 to 111 °C
23 | CC1(C(=O)O)COC2(CCCCCCC2)OC1 | 120 to 122 °C
24 | CCCCCCN1C(=O)c2cscc2Nc2ccccc21 | 100 to 102 °C
25 | COc1cc(NOC(C)=O)cc(OC)c1 | 163 to 165 °C

Row | SMILES | melting point
26 | Cc1cccc(C)c1C(=O)Nc1ccc(OCCN2CCOCC2)cc1 | 177 to 190 °C
27 | Cc1nn(C)c(C)c1N1CCN(c2c(C)c(C)c3c(c2C)CC(C)(C)O3)CC1 | 162 to 164 °C
28 | CCOC(=O)CCc1nc(-c2ccccc2)cc2ccccc12 | 60 °C
29 | ICc1nc(-c2ccc3c(c2)OCO3)c2cc3c(cc2n1)OCO3 | 155 to 160 °C
30 | CCCC(=O)N(Cc1ccc(-c2ccccc2-c2nc(=O)o[nH]2)cc1)c1sc(C)cc1C(=O)OC | 156 to 157 °C
31 | NC(=O)CCC(C(=O)O)N1C(=O)c2cccc(NCc3ccco3)c2C1=O (configuration not stated) | 114 to 116 °C
32 | N[C@H](Cc1ccc(C(F)(F)F)cc1)[C@@H](O)c1cccc(Cl)n1 (racemic) | 89 to 90 °C
33 | CN(C)Cc1cc(C(N)=O)ccc1OCCN(C)Cc1ccc(Cl)cc1 | 123 to 124 °C
34 | CCCCCCCCCC(CCC)CC(C)CC(O)c1cc(O)ccc1O (configuration not stated) | 123 °C
35 | C=CCc1cc(Cc2cnc(N)nc2N)c2ccc(C)nc2c1OC | 219 to 222 °C
36 | Cc1cc(C)n(-c2nc(Nc3ccc(-c4ccccc4)cc3)c3ccccc3n2)n1 | 268 to 270 °C
37 | CCC(=O)Oc1cc(OC)cc(OC)c1C(=O)C=Cc1ccccc1 | 116 to 117 °C
38 | Cn1c([N+](=O)[O-])cnc1C=O | 90 to 94 °C
39 | O=[N+]([O-])c1ccc(OC[C@@H]2CCCN2c2ccc3ccccc3n2)cc1 | 118 to 120 °C
40 | OCC1CC(n2c(SCc3ccccc3)nc3cc(Cl)c(Cl)cc32)C(O)C1O (configuration not stated) | 160 to 162 °C
41 | CCOc1ccc2[nH]c(=O)n(C34CC5CC(CC(C5)C3)C4)c2c1 | 146 °C
42 | CCC(CC)(CC)C(=O)O[C@H]1CCC=C2C=C[C@H](C)[C@H](CC[C@@H]3C[C@@H](O)CC(=O)O3)[C@H]21 | 65 to 68 °C
43 | CCCSN(C)C(=O)Nc1ccc(Cl)c(Cl)c1 | 40 °C
44 | O=C(NCCc1ccccn1)Nc1ccccc1[N+](=O)[O-] | 182 °C
45 | Cc1ccc(S(=O)(=O)NCCN2C(=O)C3(CCCC3)c3ccccc32)cc1 | 60 °C
46 | NCC(=O)OCc1ccc([N+](=O)[O-])cc1 | 45 to 50 °C
47 | CCOc1nn(-c2ccc(C(F)(F)F)cn2)cc1CCCOc1ccc(OC)cc1CC(=O)O | 138 to 139 °C
48 | COc1ccc(C(=CCCC(=O)O)c2ccc(OC)cc2)cc1 | 113 to 114 °C
49 | CC(C)(C)OC(=O)NCc1ccc(OCCC2Oc3ccccc3N(Cc3ccc(Cl)cc3)C2=O)cc1 (configuration not stated) | 121 to 122 °C
50 | COC(=O)Nc1cc(OC2CCCC2)c(Cl)cc1F | 120 to 123 °C

Row | SMILES | melting point
51 | COc1ccc(C2=NOC(C)(/C(N)=C/OC(C)=O)C2)cc1OC1CCCC1 (configuration not stated) | 131 °C
52 | O=C1NC(=O)c2c1c(-c1ccccc1Cl)cc1c2ccn1CCCO | 225 to 227 °C
53 | Oc1c(CN2CCCC2)cc(Nc2ccnc3ccccc23)cc1CN1CCCC1 | 67 °C
54 | O=C(NC1CCN(CCCc2ccc(Cl)cc2)C1)C12CC3CC(CC(C3)C1)C2 (configuration not stated) | 117 to 119 °C
55 | O=c1cnc2c(NCCO)nc(SCc3cccc(C(F)(F)F)c3F)nc2[nH]1 | 221 to 222 °C
56 | CC(C)c1ccc(C(C[N+](=O)[O-])SC(=S)N(C)C)cc1 (configuration not stated) | 119 to 120 °C
57 | CC(=O)CC(=O)NCC#N | 63 to 65 °C
58 | O=[N+]([O-])c1ccc(NN=CCCc2ccc(F)cc2)cc1 | 125 to 127 °C
59 | Cc1ccc(S(=O)(=O)n2ccnc2C(O)(c2ccc(F)cc2)c2ccc(F)cc2)cc1 | 149 to 151 °C
60 | Cc1cnn(-c2ccc(Cl)cc2Cl)c(=O)c1Br | 108 °C
61 | Nc1sc2c(c1C(=O)c1cc3ccccc3o1)CCC2 | 126 to 129 °C
62 | O=C(O)c1cn(-c2ccc(F)cc2)c2c(F)c(N3Cc4ccc(Br)cc4C3)c(F)cc2c1=O | > 300 °C
63 | CCOc1ccc(-n2c(-c3ccncc3)nc(SC)c(C#N)c2=O)cc1 | 201 to 204 °C
64 | CCOCc1nc(C(C)(C)O)c(C(=O)O)n1Cc1ccc(-c2ccccc2-c2nnn[nH]2)cc1 | 150 °C
65 | CN(C)CCCN(c1ccccc1)c1ncccc1NC(=O)c1ccccc1[N+](=O)[O-] | 134 to 136 °C
66 | COc1ccc(N(C(=O)F)C(=O)Cl)cc1Cl | 124 to 127 °C
67 | CCCCc1nc(SC)c(C(=O)OCC)n1Cc1ccc(-c2ccc(S(=O)(=O)NC#N)cc2C)cc1 | 211 °C
68 | FC(F)(F)Oc1ccc2[nH]c(-c3cccnc3)nc2c1 | 197 to 199 °C
69 | CCN1C(C)CN(CC(=O)NC2(c3cc4ccccc4o3)C(=O)Nc3cc(Cl)cc(Cl)c32)CC1C (single isomer, unassigned; (+)) | 157 to 160 °C
70 | CCN1CCN(CCN2CC[C@H](NC(=O)c3cc(Cl)c(N)cc3OC)[C@H](OC)C2)C1=O (relative stereo) | 153 °C
71 | N#Cc1c(N2CCCCC2)cc(-c2cccc3ccccc23)c2c1-c1ccccc1C2 | 188 to 190 °C
72 | COc1cc(C(=O)NC2CC2)c(Cl)cc1O | 214 to 216 °C
73 | CC1Cc2cc(S(=O)(=O)n3cc(-c4ccccc4)[nH]c3=O)ccc2N1C(=O)c1ccc(NC(=O)CCl)cc1 (configuration not stated) | 246 °C
74 | O=C(C=C(O)c1ccccc1O)c1cn(S(=O)(=O)c2ccccc2)c2ccc(Cl)cc12 | 241 to 244 °C
75 | CCOC(=O)C1(n2cc(Cl)cc2C(=O)C(Cl)(Cl)Cl)CC(=O)NC1=O (configuration not stated) | 182 to 185 °C

Row | SMILES | melting point
76 | COC(=O)COc1cccc2c1CCC(Cc1coc(C(c3ccccc3)c3ccccc3)n1)C2 (configuration not stated) | 91 to 93 °C
77 | COC(=O)CN1C(=O)CN=C(c2ccccc2)c2cc(Cl)ccc21 | 137 to 138 °C
78 | COc1ccc(NC(=O)c2ccc(C#N)cc2)cc1 | 155 to 157 °C
79 | CN1C(=O)CC[C@]2(C)c3ccc(-c4cccc(C(F)(F)F)c4)cc3CC[C@@H]12 | 64 to 87 °C
80 | CCn1ncc2nc(C#N)c(OCCC(C)C)nc21 | 78 to 80 °C
81 | COc1ccc(-c2ccc(N)nn2)cc1OC1CCCC1 | 207 °C
82 | O=C(c1cc(-c2ccc(F)cc2)c(-c2ccc(F)cc2)[nH]1)C(F)(F)F | 211 to 212 °C
83 | O=S(=O)(Cl)c1cc(Cl)c(Cl)c(S(=O)(=O)Cl)c1 | 114 to 115 °C
84 | CCOC(=O)C1=C(C)Nc2c(c(C)nn2C)C1c1ccccc1[N+](=O)[O-] (configuration not stated) | 194 to 198 °C
85 | CCCCC(CCCc1cccnc1)CC(NS(=O)(=O)c1ccc(Cl)cc1)C(=O)O (configuration not stated) | 113 to 114 °C
86 | Nc1cc(Cl)ccc1C(=O)NO | 131 to 133 °C
87 | O=c1cc(CCl)nc2ccn(-c3ccccc3)n12 | 194 to 196 °C
88 | COC(=O)c1cc(CO)cc([N+](=O)[O-])c1 | 76.5 to 77.5 °C
89 | CC(=O)Nc1nc(C)c(CCN2CCC(=C(c3ccc(F)cc3)c3ccc(F)cc3)CC2)c(=O)n1C | 141 °C
90 | Cc1c(CC(=O)O)c2cc(O)ccc2n1C(=O)c1cccc(Cl)c1 | 158 to 160 °C
91 | CCOc1ccc(C2=NN(c3ccc(C(=O)N4CCSCC4)cc3)C(=O)[C@H]3CC=CC[C@@H]23)cc1OCC (relative stereo) | 104 to 106 °C
92 | Cc1ccc(Oc2ccc(C(F)(F)F)cc2Cl)cc1C(=O)O | 113 °C
93 | O=C(O)[C@H](O)C1CCCCC1 | 124 to 126 °C
94 | COc1ccc(Nc2ccccc2C=C(Br)Br)cc1OC | 83 to 85 °C
95 | CCCN(CCC)Cc1nc(-c2ncn3c2CN(C)C(=O)c2c-3cccc2C(F)(F)F)no1 | 216 to 218 °C
96 | COC(=O)c1ccc(C(=O)Nc2ccc(C)c(Nc3nc(-c4cccnc4)cs3)c2)cc1 | 195 °C
97 | COc1ccc(CCNC2CCCc3c2ccc(=O)n3C)cc1 (configuration not stated) | 97 to 99 °C

From a melting point compilation (Tetko et al.; mined from patent text by program, amines drawn as free bases though some values may be those of a salt)
